Experiments:
SFO^nNOS neurons = assay: Salt/Mannitol loading with fiber photometry of SFO^nNOS/MnPO^nNOS neurons and drinking; assay type: in vivo, mice; details: fiber photometry; for activity of SFO^nNOS neurons after intraperitoneal injection: 2 M solution i.p.
Method: Salt/Mannitol Loading Experiments: 150 μL/300 μL of 2 M NaCl or 300 μL of 2 M Mannitol was injected intraperitoneally at the end of the acclimatization period. For FIGS. 1P-T and FIGS. 7P-S, CNO or vehicle (water) was injected 10 min prior to NaCl/Mannitol injection. We measured bulk fluorescence signals using fiber photometry as previously described^[26]. Briefly, 490 nm and 405 nm LEDs ([…] and […]) were collimated and delivered to the brain. The light intensity was kept less than 100 μW during all recordings. The fluorescence signal was then focused onto a femtowatt photoreceiver (Newport, Model 2151). The modulation and demodulation were done with an RP2.1 real time processor (Tucker-Davis Technologies) running custom software. The licks from the lickometer were simultaneously recorded as real-time TTL signals to the RP2.1. Fluorescence changes were analyzed using custom MATLAB (MathWorks) code as described previously^[26]. Data were extracted and subjected to a low pass filter at 1.8 Hz. A linear function was used to scale up the 405 nm channel signal to the 490 nm channel signal to get the fitted 405 nm signal. The resultant ΔF/F was calculated as (raw 490 nm signal-fitted 405 nm signal)/(fitted 405 nm signal). For brief access tests, the Area Under Curve (ΣΔFduring) was quantified by integrating the fluorescence signals during the bout. For all bouts, the mean fluorescence for 30 s prior to the first lick was calculated and subtracted from the entire session. ΔF changes (ΔFpost-ΔFpre) were calculated by subtracting the mean fluorescence signal during the 2-s period before the first lick from the mean signal during the 2-s at 1 min after the bout. For displaying traces, the fluorescence data was time-binned by a factor of 2.5 times the sampling frequency and down-sampled to 1 Hz. For long-term tests, the Area Under Curve was calculated for 2.5 min after the start of the bout. […] For […]), the first bout at the start of the session and the last bout within 10 min of access were used. The AUC for the PSTHs were calculated during the first or the last 15 seconds.

MnPO = assay: Intra-cranial injection of Exendin-4 into the MnPO, water intake; assay type: in vivo, mice; details: 100 ng into the MnPO vs vehicle (ACSF)
Method: 100 ng of Exendin-4 (Sigma Aldrich) dissolved in 1 μL of ACSF was delivered by a custom-made cannula and tubing (PlasticsOne) connected to a Hamilton syringe driven by a pump (NewEra PumpSystems) at 100 nL/min into the MnPO of water deprived animals under head-fixed conditions. Two minutes after infusion, freely-moving animals were given access to water for the next 45 minutes. The cannula position was verified by infusing Exendin-4-FAM (Anaspec) conjugate before euthanasia. ELISA

MnPO^GLP1r neurons = assay: Whole-cell recording from MnPO^GLP1r neurons with Exendin-4; assay type: cell-based, mice; details: brain slice preparation
From the text: Procedures for preparation of acute brain slices and recordings with optogenetic stimulations were similar to those described previously^[10],[36]. After decapitation, the brain was removed and immersed in ice-cold solution. Coronal slices ([…]) were cut using a vibratome (VT-1200s, Leica) and moved into HEPES-holding solution (NaCl 92, KCl 2.5, NaH2PO4 1.2, NaHCO3 30, HEPES 20, glucose 25, Na-ascorbate 5, Thiourea 2, Na14 pyruvate 3, MgSO4 2, CaCl2 2, pH 7.35). The slices were allowed to recover at 33° C. for 30 min and then held at room temperature ([…]) until use.
While recording, slices were perfused continuously (˜2 mL/min) with artificial cerebrospinal fluid (ACSF-NaCl 124, KCl2.5, NaH2PO4 1.2, NaHCO3 24, glucose 25, MgSO4 1, CaCl2 2) at 25° C. Neurons were visualized and targeted using an upright IR19 DIC microscope (BX51WI, Olympus). […] In order to confirm the PSCs recorded were GABAergic, picrotoxin (150 μM) was applied through the bath in part of the experiments. […] CNO (˜6 μM) was applied by a puff (30 s) from another glass pipette placed ˜50 μm from the recorded cell.

Row | Molecule | activity of SFO^nNOS neurons after intraperitoneal injection (SFO^nNOS neurons) | water intake after water deprivation (MnPO) | firing frequency of MnPO^GLP1r neurons (MnPO^GLP1r neurons) | resting membrane potential of MnPO^GLP1r neurons (MnPO^GLP1r neurons) | activity of MnPO^nNOS neurons after intraperitoneal injection (SFO^nNOS neurons; 2 M, 300 μl i.p., water-satiated animal)
1 | OC[C@@H](O)[C@@H](O)[C@H](O)[C@H](O)CO [Mannitol] | robustly activated | – | – | – | –
2 | Exendin-4 | – | no effect on water intake | no effect on the firing frequency | small decrease | –
3 | [Cl-].[Na+] [NaCl] | robustly activated | – | – | – | robustly activated

Reference: patent publication US10960084B2, “Modulation of fluid intake” (California Institute of Technology, priority 2018, dated 2021)
